Values joined by “and” are separate entries in the source; they are usually repeats but may differ in a detail not shown here. Equal entries are not always repeated. Where no end group is shown, it is not given here.
Key:
soleus muscle = experiment: Antisauvagine-30 pre-treatment, [3H]2DG uptake in soleus muscle; type: in vivo, mouse; conditions: ASG30 300 ug/kg IP pre-treatment, UCN2 1 mg/kg, insulin 0.75 IU/kg
Procedure: To determine 2-deoxy-glucose (2DG) uptake in soleus muscle, mice were fasted for 5 h and anaesthetized with isoflurane. Animals were injected IP with 300 ug/kg of ASG30 or an equivalent volume of water. […] 15 min following 2DG administration, blood was collected via intracardiac stick and soleus and gastrocnemius muscles were dissected and snap frozen in liquid nitrogen. Samples were stored at −80 C until processing. Blood was treated with BaOH2 and ZnSO4 and after centrifugation, radioactivity was determined via liquid scintillation counting (Tri-Carb 5110TR, PerkinElmer, Waltham, MA). Tissue was homogenized and mixed with water or BaOH2 and ZnSO4 to determine total and unphosphorylated 2DG content.
(§1) Blood Glucose (mg/dL) +Veh +Veh
(§2) Supplementary Fig. 1. Antisauvagine-30 Blunts Effects of UCN2 on Glucose Uptake.
(§3) (A) Blood glucose during oGTT. Oral glucose gavage occurred at t = 0. At t = -30 animals were
(§4) treated with either Antisauvagine-30 (ASG30) or water. At t = -20 animals were treated with
(§5) either Saline, UCN2 alone, ASG30 alone, or ASG30 and UCN2 together. Mean±SD, n = 6.
(§6) Significance was assessed by one-way ANOVA and Tukey HSD.
(§7) (B) [3H]2-Deoxyglucose uptake by the soleus muscle in insulin-treated or untreated mice, following
(§8) pre-treatment of saline, UCN2, or ASG30 and UCN2. Mean±SD, n = 6.
(§9) Significance was assessed by one-way ANOVA and Tukey HSD. * P < 0.05, ** P < 0.01, *** P < […]

mice = experiment: Antisauvagine-30 pre-treatment, oGTT with UCN2; type: in vivo, mouse
Procedure: For glucose tolerance tests (GTTs), animals were fasted for 8 h with ad libitum access to water. Fasting glucose measurements were taken before 300ug/kg IP dose of ASG30 (Tocris Biosciences, Bristol, UK, Catalog No: 2071) or an equivalent volume of sterile distilled water. 10 min later animals received a 1 mg/kg IP dose of UCN2 or an equivalent volume of saline co-dosed with 300ug/kg of ASG30 or an equivalent volume of water. 20 min later animals received a […] oral glucose dose. Blood glucose measurements were taken via tail nick using the AlphaTRAK 2 Glucose Monitoring System (Zoetis, Parsippany-Troy Hills, NJ) at 10, 30, 60, and 120 min after dose.
as §1, §2, §3, §4, §5, §6, §7, §8, §9

[1] = tested on: CRHR2-expressing HEK293 cells; experiment: FAM-UCN2 internalization, fluorescence and live cell imaging of HEK293 cells; type: cell-based, human; conditions: HEK293 cells with or without CRHR2, over 24 h
mouse soleus muscle = experiment: Ex vivo soleus muscle [3H]2-deoxyglucose uptake; conditions: individual muscles
Procedure: Soleus muscle was removed from fed animals anesthetized by an intraperitoneal injection of pentobarbital (10 mg/100 g body weight). Dissected soleus muscles were suspended at 5 mN of tension in incubation chambers (Model 610/820 M, Danish Myo-Technology, Denmark) containing Krebs-Ringer-Buffer supplemented with 0.1% BSA, 2 mM pyruvate and 8 mM Mannitol. During the entire incubation period the KRB was maintained at 30 °C and oxygenated with 95% O2 and 5% CO2. Following 10 min of pre-incubation muscles were incubated in Krebs buffer +/− 100 nM (−7.0 log[M]) UCN2. At the next time point, 30 min later, muscles were placed in baths containing Krebs buffer +/− 100 nM (−7.0 [M]) UCN2. At the next time point, 15 min later, muscles were placed in baths containing Krebs buffer +/− 100 nM (−7.0 log[M]) UCN2 + /− 60 nM Insulin (Actrapid, Novo Nordisk, Bagsvaerd, Denmark) for 15 min. For the ex vivo glucose uptake studies, 1 mM [^3H]2-deoxyglucose (Perkin-Elmer) and 7 mM [^14C]mannitol (Perkin-Elmer) was also added at this time. Muscles that were in saline in the first bath, saline in the second bath, and saline in the third bath were assigned to the SSS group. Muscles that were in saline in the first bath, saline in the second bath, and UCN2 in the third bath were assigned to the SSU group. Muscles that were in UCN2 in the first bath, saline in the second bath, and UCN2 in the third bath were assigned to the USU group. Muscles that were in saline in the first bath, UCN2 in the second bath, and UCN2 in the third bath were assigned to the SUU group. Following incubation, muscles were harvested, washed in ice-cold KRB and immediately frozen in liquid nitrogen.
Glucose uptake was determined in muscle protein lysates by assessing the accumulation of [^3H]2-deoxyglucose with the use of [^14C]mannitol to correct for the extracellular space. Radioactivity was measured by liquid scintillation counting.

[2] = target: T1, unmodified CRHR2a (corticotropin-releasing hormone receptor 2, alpha isoform) (human) (UniProt Q13324)
T1 sequence: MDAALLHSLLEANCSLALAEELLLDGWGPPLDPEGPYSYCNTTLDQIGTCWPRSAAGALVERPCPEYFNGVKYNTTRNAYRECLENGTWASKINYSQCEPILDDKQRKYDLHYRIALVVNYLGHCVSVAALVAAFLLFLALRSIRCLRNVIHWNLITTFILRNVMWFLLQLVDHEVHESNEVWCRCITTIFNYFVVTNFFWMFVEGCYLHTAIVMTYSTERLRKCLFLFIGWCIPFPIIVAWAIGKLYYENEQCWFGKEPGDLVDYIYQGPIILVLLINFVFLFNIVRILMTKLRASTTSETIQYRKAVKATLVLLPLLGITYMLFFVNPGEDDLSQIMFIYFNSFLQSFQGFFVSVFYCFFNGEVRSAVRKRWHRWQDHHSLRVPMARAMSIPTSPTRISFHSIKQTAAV

With Antisauvagine-30 [ASG30] the “insulin-mediated glucose uptake in soleus muscle in vivo” value (soleus muscle) was “restored insulin-mediated glucose uptake”, the “glucose tolerance in UCN2-treated animals during oGTT” value (mice; ASG30 300ug/kg IP pre-treatment) was “improved glucose tolerance” and the “effect on UCN2-induced blood glucose” value (mice; ASG30 300ug/kg IP pre-treatment and co-dose with 1 mg/kg UCN2) was “significantly blunted UCN2’s effects on blood glucose”.

For “FAM-UCN2: Fluorescently labeled UCN2 (IVLSLDVPIGLLQILLEQARARAAREQATTNARILARVGHC; ends and bridges not checked; also: FAM label, position not given here)”, the “internalization of the labeled ligand” value [1] was “internalized in a receptor-dependent manner”.

For Insulin, the “2DG Uptake” value (mouse soleus muscle; Fig 6C, Vehicle +Insulin) was 2.36 µmol/g/h and 3.79 µmol/g/h and 4.38 µmol/g/h and 3.22 µmol/g/h and 3.39 µmol/g/h and the “2DG Uptake” value (mouse soleus muscle; Fig 6D, Insulin-SSS) was 3.619 µmol/g/h and 3.768 µmol/g/h and 3.935 µmol/g/h.

For IVLSLDVPIGLLQILLEQARARAAREQATTNARILARVGHC (ligand) [Urocortin 2 (UCN2)], the Gs activation, ebBRET biosensor (Gas-RlucII leaving the plasma membrane), HEK293 cells with increasing UCN2; EC50 of UCN2 [2] was 0.1 nM, the β-Arrestin 1 recruitment, ebBRET effector membrane translocation assay, HEK293 cells with increasing UCN2; EC50 of UCN2 [2] was 6.5 nM and the β-Arrestin 2 recruitment, ebBRET effector membrane translocation assay, HEK293 cells with increasing UCN2; EC50 of UCN2 [2] was 6.1 nM.

From publication PMC10319809, “Chronic UCN2 treatment desensitizes CRHR2 and improves insulin sensitivity” (Nature Communications, 2023)
